# From ChEMBL document CHEMBL3272289, “Amino acids. 1. alpha-Hydroxymethylphenylalanines” (1976)
# Calls of active or inactive are those of the source. The calls are words filed in the database; no cut-off is given here.
# Assays:
# Rattus norvegicus [1] = experiment: Hypotensive effect in conscious spontaneously hypertensive rat assessed as reduction in blood pressure at 100 to 300 mg/kg, po; type: functional, organism-based
# Rattus norvegicus [2] = experiment: Hypotensive effect in conscious spontaneously hypertensive rat assessed as reduction in blood pressure at 100 mg/kg, po administered as single dose; type: functional
# Rattus norvegicus [3] = experiment: Hypotensive effect in conscious spontaneously hypertensive rat assessed as reduction in blood pressure at 50 mg/kg, po administered as single dose; type: functional
SMILES,Activity (Rattus norvegicus [1]),Activity (Rattus norvegicus [2]) [mmHg],Activity (Rattus norvegicus [3]) [mmHg]
NC(CO)(Cc1ccc(O)c(O)c1)C(=O)O (centres undefined),inactive,,
NC(CO)(Cc1ccc(O)cc1)C(=O)O (centres undefined),inactive,,
C[C@](N)(Cc1ccc(O)c(O)c1)C(=O)O [METHYLDOPA],,85,44
